This note sets out measurements from patent US12503471B2, “Triazatricycle compounds for the treatment of autoimmune disease” (Hoffmann-La Roche Inc., priority 2019, dated 2025).

In the test the target is T1, human TLR9 (Homo sapiens, UniProt Q9NR96).
T1 construct: host or cells: HEK293 (HEK-Blue hTLR9)
T1 sequence (Q9NR96 26-1032): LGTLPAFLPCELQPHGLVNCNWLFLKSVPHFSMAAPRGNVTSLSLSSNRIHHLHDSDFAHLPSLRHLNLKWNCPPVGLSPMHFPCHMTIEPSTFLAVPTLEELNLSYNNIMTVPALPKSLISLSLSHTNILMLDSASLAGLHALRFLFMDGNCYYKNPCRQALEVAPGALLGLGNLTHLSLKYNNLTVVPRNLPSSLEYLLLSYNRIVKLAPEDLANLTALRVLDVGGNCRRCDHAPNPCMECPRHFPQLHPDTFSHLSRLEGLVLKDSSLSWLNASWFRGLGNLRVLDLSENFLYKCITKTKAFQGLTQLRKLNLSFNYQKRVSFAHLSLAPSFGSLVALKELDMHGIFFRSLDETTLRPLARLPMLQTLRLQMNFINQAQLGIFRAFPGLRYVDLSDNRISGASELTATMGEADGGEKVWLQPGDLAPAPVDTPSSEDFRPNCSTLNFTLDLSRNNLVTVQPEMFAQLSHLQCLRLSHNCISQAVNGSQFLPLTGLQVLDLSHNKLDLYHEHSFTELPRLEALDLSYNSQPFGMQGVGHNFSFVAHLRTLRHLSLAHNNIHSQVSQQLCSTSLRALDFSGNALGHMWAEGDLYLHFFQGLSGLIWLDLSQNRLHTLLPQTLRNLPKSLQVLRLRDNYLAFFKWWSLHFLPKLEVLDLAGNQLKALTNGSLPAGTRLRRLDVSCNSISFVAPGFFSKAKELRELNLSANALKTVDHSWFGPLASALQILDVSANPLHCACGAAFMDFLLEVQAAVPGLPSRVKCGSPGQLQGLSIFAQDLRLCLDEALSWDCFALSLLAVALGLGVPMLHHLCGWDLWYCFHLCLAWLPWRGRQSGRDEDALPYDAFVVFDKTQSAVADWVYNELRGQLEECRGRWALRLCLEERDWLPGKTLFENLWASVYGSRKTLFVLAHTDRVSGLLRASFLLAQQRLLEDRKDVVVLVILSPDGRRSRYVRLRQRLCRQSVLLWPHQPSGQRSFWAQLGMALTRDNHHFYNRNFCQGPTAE
The test is described as follows: HEK293-Blue-hTLR-9 cells assay. It counts as cell-based. The following applies: HEK293-Blue-hTLR9 cells, ODN2006 stimulation, 20 hrs, SEAP reporter; read-out: HEK/hTLR9 IC50. An excerpt:
HEK293-Blue-hTLR-9 Cells Assay:
A stable HEK293-Blue-hTLR-9 cell line was purchased from InvivoGen (Cat. #: hkb-htlr9, San Diego, Calif., USA). These cells were originally designed for studying the stimulation of human TLR9 by monitoring the activation of NF-κB. A SEAP (secreted embryonic alkaline phosphatase) reporter gene was placed under the control of the IFN-β minimal promoter fused to five NF-κB and AP-1-binding sites. The SEAP was induced by activating NF-κB and AP-1 via stimulating HEK-Blue hTLR9 cells with TLR9 ligands. Therefore the reporter expression was declined by TLR9 antagonist under the stimulation of a ligand, such as ODN2006 (Cat. #: tlrl-2006-1, Invivogen, San Diego, Calif., USA), for incubation of 20 hrs. The cell culture supernatant SEAP reporter activity was determined using QUANTI-Blue^TM kit (Cat. #: rep-qbl, Invivogen, San Diego, Calif., USA) at a wavelength of 640 nm, a detection medium that turns purple or blue in the presence of alkaline phosphatase.
HEK293-Blue-hTLR9 cells were incubated at a density of 250,000˜450,000 cells/mL in a volume of 170 μL in a 96-well plate in Dulbecco's Modified Eagle's medium (DMEM) containing 4.5 g/L glucose, 50 U/mL penicillin, […] streptomycin, […] Normocin, 2 mM L-glutamine, 10% (v/v) heat-inactivated fetal bovine serum with addition of 20 μL test compound in a serial dilution in the presence of final DMSO at 1% and 10 μL of 20 uM ODN2006 in above DMEM, perform incubation under 37° C. in a CO2 incubator for 20 hrs. Then 20 μL of the supernatant from each well was incubated with 180 μL Quanti-blue substrate solution at 37° C. for 2 h and the absorbance was read at 620-655 nm using a spectrophotometer. The signaling pathway that TLR9 activation leads to downstream NF-κB activation has been widely accepted, and therefore similar reporter assay was modified for evaluating TLR9 antagonist.
With `[2H]c1ccc2c(N3C[C@@H](C)N4Cc5nc(N6CC[C@@](C)(N)C6)ccc5[C@H]4C3)ccc(C#N)c2n1` [Example 7, 5-[(2S,6R)-11-[(3R)-3-amino-3-methyl-pyrrolidin-1-yl]-6-methyl-4,7,10-triazatricyclo[7.4.0.02,7]trideca-1(9),10,12-trien-4-yl]-2-deuterio-quinoline-8-carbonitrile], the IC50 turned out to be 236 nM.
For the compound `[2H]c1ccc2c(N3C[C@@H](C)N4Cc5nc(N6C[C@@H]7C[C@H]6CN7)ccc5[C@H]4C3)ccc(C#N)c2n1` [Example 16, 2-Deuterio-5-[(2S,6R)-11-[(1S,4S)-2,5-diazabicyclo[2.2.1]heptan-2-yl]-6-methyl-4,7,10-triazatricyclo[7.4.0.02,7]trideca-1(9),10,12-trien-4-yl]quinoline-8-carbonitrile], the IC50 came out at 121 nM.
Regarding `[2H]c1ccc2c(N3C[C@@H](C)N4Cc5nc(N6CCC7(CC6)CNCCO7)ccc5[C@H]4C3)ccc(C#N)c2n1` [Example 18, 2-Deuterio-5-[(2S,6R)-6-methyl-11-(1-oxa-4,9-diazaspiro[5.5]undecan-9-yl)-4,7,10-triazatricyclo[7.4.0.02,7]trideca-1(9),10,12-trien-4-yl]quinoline-8-carbonitrile], the IC50 worked out at 262 nM.
The value for `C[C@@H]1CN(c2ccc(C#N)c3ncccc23)C[C@@H]2c3ccc(N4CCCNCC4)nc3CN12` [Example 20, 5-[(2S,6R)-11-(1,4-diazepan-1-yl)-6-methyl-4,7,10-triazatricyclo[7.4.0.02,7]trideca-1(9),10,12-trien-4-yl]quinoline-8-carbonitrile] was 206 nM.
For `[2H]c1ccc2c(N3C[C@@H](C)N4Cc5nc(N6CC[C@H](N)[C@@H](OC)C6)ccc5[C@H]4C3)ccc(C#N)c2n1` [Example 12, 5-[(2S,6R)-11-[(3S,4S)-4-amino-3-methoxy-1-piperidyl]-6-methyl-4,7,10-triazatricyclo[7.4.0.02,7]trideca-1(9),10,12-trien-4-yl]-2-deuterio-quinoline-8-carbonitrile], the IC50 came to 305 nM.
As to `[2H]c1ccc2c(N3C[C@@H](C)N4Cc5nc(C6CCNCC6)ccc5[C@H]4C3)ccc(C#N)c2n1` [Example 23, 2-Deuterio-5-[(2S,6R)-6-methyl-11-(4-piperidyl)-4,7,10-triazatricyclo[7.4.0.02,7]trideca-1(9),10,12-trien-4-yl]quinoline-8-carbonitrile], the IC50 stood at 232 nM.
For `[2H]c1ccc2c(N3C[C@@H](C)N4Cc5nc(N6CC[C@](C)(N)C6)ccc5[C@H]4C3)ccc(C#N)c2n1` [Example 8, 5-[(2S,6R)-11-[(3S)-3-amino-3-methyl-pyrrolidin-1-yl]-6-methyl-4,7,10-triazatricyclo[7.4.0.02,7]trideca-1(9),10,12-trien-4-yl]-2-deuterio-quinoline-8-carbonitrile], the IC50 was 139 nM.
The same measure for `C[C@@H]1CN(c2ccc(C#N)c3ncccc23)C[C@@H]2c3cnc(N4CCNCC4)cc3CN12` [Example 2, 5-[(2S,6R)-6-methyl-11-piperazin-1-yl-4,7,12-triazatricyclo[7.4.0.02,7]trideca-1(9),10,12-trien-4-yl] quinoline-8-carbonitrile]: 449 nM.
The same measure for `CC1(N)CCN(c2ccc3c(n2)CN2CCN(c4ccc(C#N)c5ncccc45)C[C@@H]32)CC1` [Example 4A, 5-[(2R)-11-(4-amino-4-methyl-1-piperidyl)-4,7,10-triazatricyclo[7.4.0.02,7]trideca-1(9),10,12-trien-4-yl]quinoline-8-carbonitrile]: 56.6 nM; for `[2H]c1ccc2c(N3C[C@@H](C)N4Cc5nc(N6CC[C@H](N)[C@H](OC)C6)ccc5[C@H]4C3)ccc(C#N)c2n1` [Example 13, 5-[(2S,6R)-11-[(3R,4S)-4-amino-3-methoxy-1-piperidyl]-6-methyl-4,7,10-triazatricyclo[7.4.0.02,7]trideca-1(9),10,12-trien-4-yl]-2-deuterio-quinoline-8-carbonitrile]: 289 nM.
The same measure for `[2H]c1ccc2c(N3C[C@@H](C)N4Cc5nc(N6C[C@H]7C[C@@H]6CN7)ccc5[C@H]4C3)ccc(C#N)c2n1` [Example 17, 2-Deuterio-5-[(2S,6R)-11-[(1R,4R)-2,5-diazabicyclo[2.2.1]heptan-2-yl]-6-methyl-4,7,10-triazatricyclo[7.4.0.02,7]trideca-1(9),10,12-trien-4-yl]quinoline-8-carbonitrile]: 53.4 nM; for `C[C@@H]1CN(c2ccc(C#N)c3ncccc23)C[C@@H]2c3ccc(N4CC5CNCC(C4)O5)nc3CN12` [Example 6, 5-[(2S,6R)-6-methyl-11-(9-oxa-3,7-diazabicyclo[3.3.1]nonan-3-yl)-4,7,10-triazatricyclo[7.4.0.02,7]trideca-1(9),10,12-trien-4-yl]quinoline-8-carbonitrile]: 195 nM; for `[2H]c1ccc2c(N3C[C@@H](C)N4Cc5nc(N6CCC7(CNC7)C6)ccc5[C@H]4C3)ccc(C#N)c2n1` [Example 9, 2-Deuterio-5-[(2S,6R)-11-(2,6-diazaspiro[3.4]octan-6-yl)-6-methyl-4,7,10-triazatricyclo[7.4.0.02,7]trideca-1(9),10,12-trien-4-yl]quinoline-8-carbonitrile]: 106 nM.
In the case of `[2H]c1ccc2c(N3C[C@@H](C)N4Cc5nc(OC6CCNCC6)ccc5[C@H]4C3)ccc(C#N)c2n1` [Example 24, 2-Deuterio-5-[(2S,6R)-6-methyl-11-(4-piperidyloxy)-4,7,10-triazatricyclo[7.4.0.02,7]trideca-1(9),10,12-trien-4-yl]quinoline-8-carbonitrile], the IC50 is 118 nM.
For `N#Cc1ccc(N2CCN3Cc4nc(N5CCNCC5)ccc4[C@@H]3C2)c2cccnc12` [Example 3A, 5-[(2R)-11-piperazin-1-yl-4,7,10-triazatricyclo[7.4.0.02,7]trideca-1(9),10,12-trien-4-yl]quinoline-8-carbonitrile], the IC50 was 142 nM.
The value for `C[C@@H]1CN(c2ccc(C#N)n3nccc23)C[C@@H]2c3ccc(N4C[C@@H]5C[C@H]4CN5)nc3CN12` [Example 21, 4-[(2S,6R)-11-[(1S,4S)-2,5-diazabicyclo[2.2.1]heptan-2-yl]-6-methyl-4,7,10-triazatricyclo[7.4.0.02,7]trideca-1(9),10,12-trien-4-yl]pyrazolo[1,5-a]pyridine-7-carbonitrile] was 177 nM.
The value for `[2H]c1ccc2c(N3C[C@@H](C)N4Cc5nc(N6CCC(C)(N)CC6)ccc5[C@H]4C3)ccc(C#N)c2n1` [Example 19, 5-[(2S,6R)-11-(4-amino-4-methyl-1-piperidyl)-6-methyl-4,7,10-triazatricyclo[7.4.0.02,7]trideca-1(9),10,12-trien-4-yl]-2-deuterio-quinoline-8-carbonitrile] was 142 nM; that for `C[C@@H]1CN(c2ccc(C#N)c3ncccc23)C[C@@H]2c3ccc(N4CCNCC4)nc3CN12` [Example 5, 5-[(2S,6R)-6-methyl-11-piperazin-1-yl-4,7,10-triazatricyclo[7.4.0.02,7]trideca-1(9),10,12-trien-4-yl]quinoline-8-carbonitrile] was 252 nM.
